Results from patent US20240024273A1, “TOPICAL ADMINISTRATION OF 2-(DIETHYLAMINO)ETHYL 2-(4-ISOBUTYLPHENYL)PROPRIONATE FOR TREATMENT OF DISEASES” (TECHFIELDS PHARMA CO., LTD., priority 2020, published 2024).

System: Subjects with Osteoarthritis of the Knee
Experiment: Second Phase 2 study: safety (treatment-emergent adverse events)
Type: in vivo, human
Details: for Adverse events of special interest, Events / Adverse events of special interest, Subjects, number (%) / Local skin reactions around the treated knees, Events / Local skin reactions around the treated knees, Subjects, number (%) / Requires hospitalization, Events / Requires hospitalization, Subjects, number (%) / Results in death, number (%) / Serious treatment-emergent adverse events, Events / Serious treatment-emergent adverse events, Subjects, number (%) / Severe treatment-emergent adverse events, Events / Severe treatment-emergent adverse events, Subjects, number (%) / To be discontinued from the study due to adverse events, Events / To be discontinued from the study due to adverse events, Subjects, number (%) / To be discontinued from the treatment temporarily due to adverse events, Events / To be discontinued from the treatment temporarily due to adverse events, Subjects, number (%) / Treatment-emergent adverse events, Events / Treatment-emergent adverse events, Subjects, number (%): All Causalities
Source text: Safety assessments will be performed at each visit and will include assessment of AEs, vital signs (blood pressure, pulse rate, and oral temperature), clinical laboratories, physical examination, skin irritation, and electrocardiograms (ECGs) as indicated in the study flow chart, Table 47.
Safety assessments will include AEs, vital signs (blood pressures, pulse rate, and oral temperature), clinical laboratories, physical examination, skin irritation, and ECGs at various time points during the study as indicated in the study flow chart.
Adverse events of interest include: local skin reactions around the treated knee(s), upper stomach pain, GI bleeding, serious cardiovascular side effects (e.g., thrombotic events, myocardial infarction, or stroke), jaundice, elevated liver function tests, and nausea.
Safety analyses will be conducted on the SAS. Safety parameters will be listed and summarized using standard descriptive statistics, as appropriate. No formal statistical analyses are planned.

[1] = moderate adverse events, 4.375 mg/knee, BID, N = 71

CCN(CC)CCOC(=O)C(C)c1ccc(CC(C)C)cc1 (stereo not drawn) [2-(diethylamino)ethyl 2-(4-isobutylphenyl)propionate]
Aspartate Aminotransferase Increased: number of adverse events (17.5 mg/knee, BID, N = 70): 1 | Aspartate Aminotransferase Increased: percentage of subjects with adverse events (17.5 mg/knee, BID, N = 70): 1.4% | Aspartate Aminotransferase Increased: subjects with adverse events (17.5 mg/knee, BID, N = 70): 1 | Back Pain: number of adverse events (17.5 mg/knee, BID, N = 70): 1(%)[1] | Back Pain: subjects with adverse events, number (percentage) (17.5 mg/knee, BID, N = 70): 1(%)[1] | Constipation: number of adverse events (17.5 mg/knee, BID, N = 70): 1 | Constipation: percentage of subjects with adverse events (17.5 mg/knee, BID, N = 70): 1.4% | Constipation: subjects with adverse events (17.5 mg/knee, BID, N = 70): 1 | Cough: number of adverse events (17.5 mg/knee, BID, N = 70): 2 | Cough: subjects with adverse events, number (percentage) (17.5 mg/knee, BID, N = 70): 2(2.9%) | Dizziness: number of adverse events (17.5 mg/knee, BID, N = 70): 1 | Dizziness: subjects with adverse events, number (percentage) (17.5 mg/knee, BID, N = 70): 1(1.4%) | Frequency of Positive Fecal Occult Blood Test (17.5 mg/knee, BID, N = 70): 5 | Gastrointestinal Disorders: number of adverse events (17.5 mg/knee, BID, N = 70): 5 | Gastrointestinal Disorders: percentage of subjects with adverse events (17.5 mg/knee, BID, N = 70): 5.7% | Gastrointestinal Disorders: subjects with adverse events (17.5 mg/knee, BID, N = 70): 4 | Gout: number of adverse events (17.5 mg/knee, BID, N = 70): 1 | Gout: percentage of subjects with adverse events (17.5 mg/knee, BID, N = 70): 1.4% | Gout: subjects with adverse events (17.5 mg/knee, BID, N = 70): 1 | Headache: number of adverse events (17.5 mg/knee, BID, N = 70): 1 | Headache: subjects with adverse events, number (percentage) (17.5 mg/knee, BID, N = 70): 1(1.4%) | Hypercholesterolaemia: number of adverse events (17.5 mg/knee, BID, N = 70): 2 | Hypercholesterolaemia: percentage of subjects with adverse events (17.5 mg/knee, BID, N = 70): 2.9% | Hypercholesterolaemia: subjects with adverse events (17.5 mg/knee, BID, N = 70): 2 | Hypertriglyceridemia: number of adverse events (17.5 mg/knee, BID, N = 70): 6 | Hypertriglyceridemia: percentage of subjects with adverse events (17.5 mg/knee, BID, N = 70): 8.6% | Hypertriglyceridemia: subjects with adverse events (17.5 mg/knee, BID, N = 70): 6 | Infections and Infestations: number of adverse events (17.5 mg/knee, BID, N = 70): 14 | Infections and Infestations: subjects with adverse events, number (percentage) (17.5 mg/knee, BID, N = 70): 13(18.6%) | Investigations: number of adverse events (17.5 mg/knee, BID, N = 70): 1 | Investigations: percentage of subjects with adverse events (17.5 mg/knee, BID, N = 70): 1.4% | Investigations: subjects with adverse events (17.5 mg/knee, BID, N = 70): 1 | Metabolism and Nutrition Disorders: number of adverse events (17.5 mg/knee, BID, N = 70): 9 | Metabolism and Nutrition Disorders: percentage of subjects with adverse events (17.5 mg/knee, BID, N = 70): 11.4% | Metabolism and Nutrition Disorders: subjects with adverse events (17.5 mg/knee, BID, N = 70): 9 | Muscle Spasms: number of adverse events (17.5 mg/knee, BID, N = 70): 3 | Muscle Spasms: subjects with adverse events, number (percentage) (17.5 mg/knee, BID, N = 70): 2 | Musculoskeletal Pain: number of adverse events (17.5 mg/knee, BID, N = 70): 2 | Musculoskeletal Pain: subjects with adverse events, number (percentage) (17.5 mg/knee, BID, N = 70): 1 | Musculoskeletal and Connective Tissue Disorders, Overall Total: number of adverse events (17.5 mg/knee, BID, N = 70): 8 | Musculoskeletal and Connective Tissue Disorders, Overall Total: subjects with adverse events, number (percentage) (17.5 mg/knee, BID, N = 70): 6(8.6%) | Neck Pain: number of adverse events (17.5 mg/knee, BID, N = 70): 1(%)[1] | Neck Pain: subjects with adverse events, number (percentage) (17.5 mg/knee, BID, N = 70): 1(%)[1] | Nervous System Disorders: number of adverse events (17.5 mg/knee, BID, N = 70): 2 | Nervous System Disorders: subjects with adverse events, number (percentage) (17.5 mg/knee, BID, N = 70): 2(2.9%) | Pain in Extremity: number of adverse events (17.5 mg/knee, BID, N = 70): 1(%)[1] | Pain in Extremity: subjects with adverse events, number (percentage) (17.5 mg/knee, BID, N = 70): 1(%)[1] | Rash: number of adverse events (17.5 mg/knee, BID, N = 70): 2 | Rash: percentage of subjects with adverse events (17.5 mg/knee, BID, N = 70): 4.2% | Rash: subjects with adverse events (17.5 mg/knee, BID, N = 70): 2 | Respiratory, Thoracic and Mediastinal Disorders: number of adverse events (17.5 mg/knee, BID, N = 70): 2 | Respiratory, Thoracic and Mediastinal Disorders: subjects with adverse events, number (percentage) (17.5 mg/knee, BID, N = 70): 2(2.9%) | Skin Irritation: number of adverse events (17.5 mg/knee, BID, N = 70): 4 | Skin Irritation: percentage of subjects with adverse events (17.5 mg/knee, BID, N = 70): 1.4% | Skin Irritation: subjects with adverse events (17.5 mg/knee, BID, N = 70): 3 | Skin and Subcutaneous Tissue Disorders: number of adverse events (17.5 mg/knee, BID, N = 70): 6 | Skin and Subcutaneous Tissue Disorders: percentage of subjects with adverse events (17.5 mg/knee, BID, N = 70): 7.1% | Skin and Subcutaneous Tissue Disorders: subjects with adverse events (17.5 mg/knee, BID, N = 70): 5 | Subjects with Positive Fecal Occult Blood Test (17.5 mg/knee, BID, N = 70): 5 | Subjects with Positive Fecal Occult Blood Test, percentage (17.5 mg/knee, BID, N = 70): 7.1% | Toothache: number of adverse events (17.5 mg/knee, BID, N = 70): 1 | Toothache: percentage of subjects with adverse events (17.5 mg/knee, BID, N = 70): 1.4% | Toothache: subjects with adverse events (17.5 mg/knee, BID, N = 70): 1 | Upper Respiratory Tract Infection: number of adverse events (17.5 mg/knee, BID, N = 70): 5 | Upper Respiratory Tract Infection: subjects with adverse events, number (percentage) (17.5 mg/knee, BID, N = 70): 5(7.1%) | Urinary Tract Infection: number of adverse events (17.5 mg/knee, BID, N = 70): 9 | Urinary Tract Infection: subjects with adverse events, number (percentage) (17.5 mg/knee, BID, N = 70): 8(11.4%) | Adverse events of special interest, Events (4.375 mg/knee BID, n = 71): 16 | Adverse events of special interest, Subjects, number (%) (4.375 mg/knee BID, n = 71): 11 (15.5%) | Local skin reactions around the treated knees, Events (4.375 mg/knee BID, n = 71): 1 | Local skin reactions around the treated knees, Subjects, number (%) (4.375 mg/knee BID, n = 71): 1 (1.4%) | Requires hospitalization, Events (4.375 mg/knee BID, n = 71): 0 | Requires hospitalization, Subjects, number (%) (4.375 mg/knee BID, n = 71): 0 | Results in death, number (%) (4.375 mg/knee BID, n = 71): 1 (1.4%) | Serious treatment-emergent adverse events, Events (4.375 mg/knee BID, n = 71): 1 | Serious treatment-emergent adverse events, Subjects, number (%) (4.375 mg/knee BID, n = 71): 1 (1.4) | Severe treatment-emergent adverse events, Events (4.375 mg/knee BID, n = 71): 1 | Severe treatment-emergent adverse events, Subjects, number (%) (4.375 mg/knee BID, n = 71): 1 (1.4%) | To be discontinued from the study due to adverse events, Events (4.375 mg/knee BID, n = 71): 1 | To be discontinued from the study due to adverse events, Subjects, number (%) (4.375 mg/knee BID, n = 71): 1 (1.4%) | To be discontinued from the treatment temporarily due to adverse events, Events (4.375 mg/knee BID, n = 71): 1 | To be discontinued from the treatment temporarily due to adverse events, Subjects, number (%) (4.375 mg/knee BID, n = 71): 1 (1.4%) | Treatment-emergent adverse events, Events (4.375 mg/knee BID, n = 71): 68 | Treatment-emergent adverse events, Subjects, number (%) (4.375 mg/knee BID, n = 71): 41 (57.7%) | Adverse events of special interest, Events (8.75 mg/knee BID, n = 70): 12 | Adverse events of special interest, Subjects, number (%) (8.75 mg/knee BID, n = 70): 10 (14.3) | Local skin reactions around the treated knees, Events (8.75 mg/knee BID, n = 70): 1 | Local skin reactions around the treated knees, Subjects, number (%) (8.75 mg/knee BID, n = 70): 1 (1.4%) | Requires hospitalization, Events (8.75 mg/knee BID, n = 70): 1 | Requires hospitalization, Subjects, number (%) (8.75 mg/knee BID, n = 70): 1 (1.4%) | Results in death, number (%) (8.75 mg/knee BID, n = 70): 0 | Serious treatment-emergent adverse events, Events (8.75 mg/knee BID, n = 70): 1 | Serious treatment-emergent adverse events, Subjects, number (%) (8.75 mg/knee BID, n = 70): 1 (1.4) | Severe treatment-emergent adverse events, Events (8.75 mg/knee BID, n = 70): 1 | Severe treatment-emergent adverse events, Subjects, number (%) (8.75 mg/knee BID, n = 70): 1 (1.4%) | To be discontinued from the study due to adverse events, Events (8.75 mg/knee BID, n = 70): 0 | To be discontinued from the study due to adverse events, Subjects, number (%) (8.75 mg/knee BID, n = 70): 0 | To be discontinued from the treatment temporarily due to adverse events, Events (8.75 mg/knee BID, n = 70): 1 | To be discontinued from the treatment temporarily due to adverse events, Subjects, number (%) (8.75 mg/knee BID, n = 70): 1 (1.4%) | Treatment-emergent adverse events, Events (8.75 mg/knee BID, n = 70): 71 | Treatment-emergent adverse events, Subjects, number (%) (8.75 mg/knee BID, n = 70): 39 (55.7%) | Adverse events of special interest, Events (17.5 mg/knee BID, n = 70): 14 | Adverse events of special interest, Subjects, number (%) (17.5 mg/knee BID, n = 70): 11 (15.7) | Local skin reactions around the treated knees, Events (17.5 mg/knee BID, n = 70): 5 | Local skin reactions around the treated knees, Subjects, number (%) (17.5 mg/knee BID, n = 70): 4 (5.7%) | Requires hospitalization, Events (17.5 mg/knee BID, n = 70): 0 | Requires hospitalization, Subjects, number (%) (17.5 mg/knee BID, n = 70): 0 | Results in death, number (%) (17.5 mg/knee BID, n = 70): 0 | Serious treatment-emergent adverse events, Events (17.5 mg/knee BID, n = 70): 0 | Serious treatment-emergent adverse events, Subjects, number (%) (17.5 mg/knee BID, n = 70): 0 | Severe treatment-emergent adverse events, Events (17.5 mg/knee BID, n = 70): 0 | Severe treatment-emergent adverse events, Subjects, number (%) (17.5 mg/knee BID, n = 70): 0 | To be discontinued from the study due to adverse events, Events (17.5 mg/knee BID, n = 70): 1 | To be discontinued from the study due to adverse events, Subjects, number (%) (17.5 mg/knee BID, n = 70): 1 (1.4%) | To be discontinued from the treatment temporarily due to adverse events, Events (17.5 mg/knee BID, n = 70): 0 | To be discontinued from the treatment temporarily due to adverse events, Subjects, number (%) (17.5 mg/knee BID, n = 70): 0 | Treatment-emergent adverse events, Events (17.5 mg/knee BID, n = 70): 52 | Treatment-emergent adverse events, Subjects, number (%) (17.5 mg/knee BID, n = 70): 30 (42.9%) | safety and tolerability (all three doses (4.375, 8.75, 17.5 mg/knee BID)): appeared to be safe and were generally well tolerated | skin irritation incidences, total (all mild) (in vivo): 9 | overall safety vs oral ibuprofen (in vivo, po): safer than oral ibuprofen | Gastroenteritis: number of adverse events [1]: 1 | Gastroenteritis: percentage of subjects with adverse events [1]: 1.4%
